Measurements taken from patent US9790178B2, “Pyrrolidinyl urea, thiourea, guanidine and cyanoguanidine compounds as TrkA kinase inhibitors” (Array BioPharma Inc., priority 2012, dated 2017).

Columns and labels:
Assay in all cases: KinaseProfiler off-target kinase profiling
Type in all cases: biochemical
Settings in all cases: 10 μM, ATP near Km
ROCK-I = target: T1, ROCK-I (Homo sapiens, UniProt Q13464)
T1 construct: purchased Millipore (KinaseProfiler service)
Method in brief: (§1)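 Compound tested at a single 10 μM concentration in duplicate, with ATP near each kinase's Km. Activity is reported as percent of control, averaged over the two replicates.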

CDK6/cyclinD3 = target: T2, CDK6/cyclinD3 (Homo sapiens, UniProt Q00534)
T2 construct: purchased Millipore, Inc. (KinaseProfiler service)
T2 sequence (Q00534 whole entry): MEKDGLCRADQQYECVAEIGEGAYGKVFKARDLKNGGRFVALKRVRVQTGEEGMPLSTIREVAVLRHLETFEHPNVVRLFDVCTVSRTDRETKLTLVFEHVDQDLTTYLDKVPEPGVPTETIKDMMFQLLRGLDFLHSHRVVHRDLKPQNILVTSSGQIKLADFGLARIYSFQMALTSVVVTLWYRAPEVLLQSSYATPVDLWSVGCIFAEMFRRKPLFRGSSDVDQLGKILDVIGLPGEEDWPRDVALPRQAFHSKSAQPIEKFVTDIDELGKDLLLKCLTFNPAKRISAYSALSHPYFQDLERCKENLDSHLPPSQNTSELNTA
T2 sequence (P30281 whole entry partner): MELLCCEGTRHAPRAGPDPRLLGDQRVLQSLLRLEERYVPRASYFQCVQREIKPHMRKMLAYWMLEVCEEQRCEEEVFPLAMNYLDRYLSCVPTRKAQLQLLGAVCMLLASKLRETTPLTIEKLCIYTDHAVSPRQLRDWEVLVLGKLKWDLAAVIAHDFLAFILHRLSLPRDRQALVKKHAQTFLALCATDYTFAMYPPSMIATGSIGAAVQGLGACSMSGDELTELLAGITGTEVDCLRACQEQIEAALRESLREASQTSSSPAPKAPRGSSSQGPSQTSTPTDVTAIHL
Method in brief: as §1

EphB1 = target: T3, EphB1 (Homo sapiens, UniProt P54762)
T3 construct: purchased Millipore, Inc. (KinaseProfiler service)
Method in brief: as §1

CDK2/cyclinA = target: T4, CDK2/cyclinA (Homo sapiens, UniProt P24941)
T4 construct: purchased Millipore, Inc. (KinaseProfiler service)
Method in brief: as §1

AKT1 = target: T5, AKT1 (Homo sapiens, UniProt P31749)
T5 construct: purchased Millipore, Inc. (KinaseProfiler service)
Method in brief: as §1

WNK2 = target: T6, WNK2 (Homo sapiens, UniProt Q9Y3S1)
T6 construct: purchased Millipore, Inc. (KinaseProfiler service)
Method in brief: as §1

p38beta = target: T7, p38beta (Homo sapiens, UniProt Q15759)
T7 construct: purchased Millipore, Inc. (KinaseProfiler service)
T7 sequence (Q15759 whole entry): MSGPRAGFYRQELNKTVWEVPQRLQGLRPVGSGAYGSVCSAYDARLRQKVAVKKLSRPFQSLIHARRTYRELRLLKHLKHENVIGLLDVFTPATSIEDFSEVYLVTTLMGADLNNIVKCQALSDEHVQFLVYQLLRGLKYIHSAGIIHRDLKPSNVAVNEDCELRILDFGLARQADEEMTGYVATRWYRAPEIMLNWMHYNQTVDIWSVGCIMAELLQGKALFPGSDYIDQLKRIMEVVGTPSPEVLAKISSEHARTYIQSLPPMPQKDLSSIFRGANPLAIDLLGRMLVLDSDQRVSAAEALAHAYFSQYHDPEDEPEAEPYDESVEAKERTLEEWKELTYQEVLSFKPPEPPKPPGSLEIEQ
Method in brief: as §1

Fes = target: T8, Fes (Homo sapiens, UniProt P07332)
T8 construct: purchased Millipore, Inc. (KinaseProfiler service)
Method in brief: as §1

Rsk4 = target: T9, Rsk4 (Homo sapiens, UniProt Q9UK32)
T9 construct: purchased Millipore, Inc. (KinaseProfiler service)
Method in brief: as §1

CK2 = target: T10, CK2 (Homo sapiens, UniProt P68400)
T10 construct: purchased Millipore, Inc. (KinaseProfiler service)
Method in brief: as §1

DRAK1 = target: T11, DRAK1 (Homo sapiens, UniProt Q9UEE5)
T11 construct: purchased Millipore, Inc. (KinaseProfiler service)
T11 sequence (Q9UEE5 whole entry): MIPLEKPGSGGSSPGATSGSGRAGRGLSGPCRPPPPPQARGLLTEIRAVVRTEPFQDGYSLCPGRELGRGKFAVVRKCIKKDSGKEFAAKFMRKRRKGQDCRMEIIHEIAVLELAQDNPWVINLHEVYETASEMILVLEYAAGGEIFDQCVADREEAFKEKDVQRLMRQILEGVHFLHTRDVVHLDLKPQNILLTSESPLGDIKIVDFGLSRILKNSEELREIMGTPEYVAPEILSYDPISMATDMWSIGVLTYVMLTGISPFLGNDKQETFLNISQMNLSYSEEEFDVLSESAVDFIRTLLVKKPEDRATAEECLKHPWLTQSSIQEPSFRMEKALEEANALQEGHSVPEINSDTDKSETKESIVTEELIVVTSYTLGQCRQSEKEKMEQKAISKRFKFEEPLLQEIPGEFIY
Method in brief: as §1

SRPK1 = target: T12, SRPK1 (Homo sapiens, UniProt Q96SB4)
T12 construct: purchased Millipore, Inc. (KinaseProfiler service)
T12 sequence (Q96SB4 whole entry): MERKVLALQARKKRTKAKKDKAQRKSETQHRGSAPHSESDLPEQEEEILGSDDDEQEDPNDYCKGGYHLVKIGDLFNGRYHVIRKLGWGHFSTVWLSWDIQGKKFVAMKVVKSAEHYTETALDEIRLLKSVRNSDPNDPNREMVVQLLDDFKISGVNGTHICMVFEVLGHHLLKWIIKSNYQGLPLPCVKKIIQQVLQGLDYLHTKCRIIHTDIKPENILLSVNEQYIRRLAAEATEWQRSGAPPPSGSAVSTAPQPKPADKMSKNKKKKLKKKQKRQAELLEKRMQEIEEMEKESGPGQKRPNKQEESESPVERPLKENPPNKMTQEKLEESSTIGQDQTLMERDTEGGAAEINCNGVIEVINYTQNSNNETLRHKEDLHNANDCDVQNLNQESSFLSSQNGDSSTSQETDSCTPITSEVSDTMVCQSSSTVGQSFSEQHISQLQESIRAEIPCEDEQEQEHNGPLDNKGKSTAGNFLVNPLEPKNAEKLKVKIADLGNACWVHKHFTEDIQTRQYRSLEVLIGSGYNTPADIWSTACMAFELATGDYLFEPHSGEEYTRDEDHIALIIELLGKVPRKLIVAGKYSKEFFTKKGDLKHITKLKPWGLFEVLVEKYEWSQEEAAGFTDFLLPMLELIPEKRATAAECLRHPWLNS
Method in brief: as §1

LOK = target: T13, LOK (Homo sapiens, UniProt O94804)
T13 construct: purchased Millipore, Inc. (KinaseProfiler service)
T13 sequence (O94804 whole entry): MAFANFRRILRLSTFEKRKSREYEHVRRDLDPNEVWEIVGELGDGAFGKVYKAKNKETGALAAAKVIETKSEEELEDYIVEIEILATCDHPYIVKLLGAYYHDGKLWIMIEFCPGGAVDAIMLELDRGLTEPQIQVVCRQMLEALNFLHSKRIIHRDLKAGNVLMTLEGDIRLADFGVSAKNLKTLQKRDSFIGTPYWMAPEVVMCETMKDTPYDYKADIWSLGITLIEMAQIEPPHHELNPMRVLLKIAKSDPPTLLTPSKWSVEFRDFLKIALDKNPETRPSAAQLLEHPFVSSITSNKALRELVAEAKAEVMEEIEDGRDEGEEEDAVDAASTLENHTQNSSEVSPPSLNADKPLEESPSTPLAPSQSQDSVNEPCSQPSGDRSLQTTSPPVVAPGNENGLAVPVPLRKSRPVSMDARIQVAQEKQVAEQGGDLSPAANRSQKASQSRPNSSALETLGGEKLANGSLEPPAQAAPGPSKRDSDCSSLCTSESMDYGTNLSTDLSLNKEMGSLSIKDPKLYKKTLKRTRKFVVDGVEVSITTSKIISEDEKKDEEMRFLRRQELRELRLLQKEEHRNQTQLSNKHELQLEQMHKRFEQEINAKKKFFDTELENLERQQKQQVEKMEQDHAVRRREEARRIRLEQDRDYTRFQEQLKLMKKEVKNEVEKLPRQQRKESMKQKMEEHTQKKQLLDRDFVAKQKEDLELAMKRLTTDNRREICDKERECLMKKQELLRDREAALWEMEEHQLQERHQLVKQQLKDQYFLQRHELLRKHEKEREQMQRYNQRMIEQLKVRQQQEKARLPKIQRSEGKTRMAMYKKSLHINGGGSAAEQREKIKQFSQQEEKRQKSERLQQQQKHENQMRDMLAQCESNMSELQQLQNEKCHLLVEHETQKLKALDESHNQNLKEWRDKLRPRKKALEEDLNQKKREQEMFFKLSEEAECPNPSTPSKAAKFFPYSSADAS
Method in brief: as §1

CAMK1 = target: T14, CAMK1 (Homo sapiens, UniProt Q14012)
T14 construct: purchased Millipore, Inc. (KinaseProfiler service)
Method in brief: as §1

CHK1 = target: T15, CHK1 (Homo sapiens, UniProt O14757)
T15 construct: purchased Millipore, Inc. (KinaseProfiler service)
Method in brief: as §1

IGF-1R Activated = target: T16, IGF-1R Activated (Homo sapiens, UniProt P08069)
T16 construct: purchased Millipore, Inc. (KinaseProfiler service)
Method in brief: as §1

PKCiota = target: T17, PKCiota (Homo sapiens, UniProt P41743)
T17 construct: purchased Millipore (KinaseProfiler service)
Method in brief: as §1

ZAP-70 = target: T18, ZAP-70 (Homo sapiens, UniProt P43403)
T18 construct: purchased Millipore, Inc. (KinaseProfiler service)
Method in brief: as §1

CLK2 = target: T19, CLK2 (Homo sapiens, UniProt P49760)
T19 construct: purchased Millipore, Inc. (KinaseProfiler service)
Method in brief: as §1

CDK3/cyclinE = target: T20, CDK3/cyclinE (Homo sapiens, UniProt Q00526)
T20 construct: purchased Millipore, Inc. (KinaseProfiler service)
T20 sequence (Q00526 whole entry): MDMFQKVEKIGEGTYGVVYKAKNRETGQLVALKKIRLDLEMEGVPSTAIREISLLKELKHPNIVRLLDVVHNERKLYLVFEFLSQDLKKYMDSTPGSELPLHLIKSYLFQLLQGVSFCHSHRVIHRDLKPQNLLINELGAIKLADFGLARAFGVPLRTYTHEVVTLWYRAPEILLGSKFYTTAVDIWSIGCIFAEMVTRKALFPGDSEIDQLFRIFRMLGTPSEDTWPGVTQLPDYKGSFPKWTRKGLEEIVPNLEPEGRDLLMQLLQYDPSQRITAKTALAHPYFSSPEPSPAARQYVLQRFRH
T20 sequence (P24864 whole entry partner): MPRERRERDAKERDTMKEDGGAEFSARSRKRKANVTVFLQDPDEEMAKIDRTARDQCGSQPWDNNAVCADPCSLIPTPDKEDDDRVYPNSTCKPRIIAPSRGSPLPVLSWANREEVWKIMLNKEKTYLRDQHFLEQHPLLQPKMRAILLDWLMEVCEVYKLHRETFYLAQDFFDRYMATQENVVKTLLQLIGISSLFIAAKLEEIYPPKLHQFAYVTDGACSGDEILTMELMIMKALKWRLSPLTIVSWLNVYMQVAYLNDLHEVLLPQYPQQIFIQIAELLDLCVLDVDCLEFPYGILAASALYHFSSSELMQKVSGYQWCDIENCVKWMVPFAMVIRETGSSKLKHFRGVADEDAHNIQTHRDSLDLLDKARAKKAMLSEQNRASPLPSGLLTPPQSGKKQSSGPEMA
Method in brief: as §1

CK1gamma2 = target: T21, CK1gamma2 (Homo sapiens, UniProt P78368)
T21 construct: purchased Millipore, Inc. (KinaseProfiler service)
Method in brief: as §1

PAK6 = target: T22, PAK6 (Homo sapiens, UniProt Q9NQU5)
T22 construct: purchased Millipore, Inc. (KinaseProfiler service)
Method in brief: as §1

TAO3 = target: T23, TAO3 (Homo sapiens, UniProt Q9H2K8)
T23 construct: purchased Millipore, Inc. (KinaseProfiler service)
Method in brief: as §1

CK1_y = tested on: CK1_y
Method in brief: as §1

Abl2 = target: T24, Abl2 (Homo sapiens, UniProt P42684)
T24 construct: purchased Millipore, Inc. (KinaseProfiler service)
T24 sequence (P42684 whole entry): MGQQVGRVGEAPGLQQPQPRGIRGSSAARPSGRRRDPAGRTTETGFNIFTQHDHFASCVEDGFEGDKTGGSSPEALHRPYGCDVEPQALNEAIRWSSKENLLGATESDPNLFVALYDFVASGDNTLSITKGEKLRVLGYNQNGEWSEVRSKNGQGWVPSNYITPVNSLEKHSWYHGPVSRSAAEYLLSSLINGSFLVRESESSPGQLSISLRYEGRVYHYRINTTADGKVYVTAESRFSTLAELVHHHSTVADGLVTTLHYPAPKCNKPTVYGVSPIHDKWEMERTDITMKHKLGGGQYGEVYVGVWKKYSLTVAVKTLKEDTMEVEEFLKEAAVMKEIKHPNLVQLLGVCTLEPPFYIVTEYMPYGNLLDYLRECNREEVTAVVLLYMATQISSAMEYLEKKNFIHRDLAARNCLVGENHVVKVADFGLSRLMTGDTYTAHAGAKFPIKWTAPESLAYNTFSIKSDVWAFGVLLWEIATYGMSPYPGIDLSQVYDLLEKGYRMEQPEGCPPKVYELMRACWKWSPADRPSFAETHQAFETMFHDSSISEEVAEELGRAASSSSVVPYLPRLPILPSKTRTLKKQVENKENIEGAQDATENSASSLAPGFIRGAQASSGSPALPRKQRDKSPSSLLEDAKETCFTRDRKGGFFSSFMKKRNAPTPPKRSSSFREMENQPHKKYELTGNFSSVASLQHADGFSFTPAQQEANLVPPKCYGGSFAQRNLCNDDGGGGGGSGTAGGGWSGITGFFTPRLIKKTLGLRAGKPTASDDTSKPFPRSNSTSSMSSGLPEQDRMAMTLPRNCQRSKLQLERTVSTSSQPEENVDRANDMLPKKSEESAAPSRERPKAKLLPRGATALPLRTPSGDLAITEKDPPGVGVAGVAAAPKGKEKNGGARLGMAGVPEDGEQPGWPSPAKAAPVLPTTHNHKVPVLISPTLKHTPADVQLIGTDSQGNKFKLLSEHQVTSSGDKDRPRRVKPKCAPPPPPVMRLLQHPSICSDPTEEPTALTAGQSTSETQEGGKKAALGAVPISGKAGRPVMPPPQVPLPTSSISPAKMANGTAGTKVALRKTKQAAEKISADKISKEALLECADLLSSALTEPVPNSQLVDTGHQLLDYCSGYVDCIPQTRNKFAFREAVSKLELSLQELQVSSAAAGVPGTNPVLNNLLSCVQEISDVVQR
Method in brief: as §1

DMPK = target: T25, DMPK (Homo sapiens, UniProt Q09013)
T25 construct: purchased Millipore, Inc. (KinaseProfiler service)
Method in brief: as §1

NEK7 = target: T26, NEK7 (Homo sapiens, UniProt Q8TDX7)
T26 construct: purchased Millipore, Inc. (KinaseProfiler service)
Method in brief: as §1

MSSK1 = target: T27, MSSK1 (Homo sapiens, UniProt Q9UPE1)
T27 construct: purchased Millipore, Inc. (KinaseProfiler service)
Method in brief: as §1

JNK2alpha2 = target: T28, JNK2alpha2 (Homo sapiens, UniProt P45984)
T28 construct: purchased Millipore, Inc. (KinaseProfiler service)
Method in brief: as §1

NEK11 = target: T29, NEK11 (Homo sapiens, UniProt Q8NG66)
T29 construct: purchased Millipore, Inc. (KinaseProfiler service)
Method in brief: as §1

Pim-3 = target: T30, Pim-3 (Homo sapiens, UniProt Q86V86)
T30 construct: purchased Millipore, Inc. (KinaseProfiler service)
Method in brief: as §1

ERK1 = target: T31, ERK1 (Homo sapiens, UniProt P27361)
T31 construct: purchased Millipore, Inc. (KinaseProfiler service)
Method in brief: as §1

CDK1/cyclinB = target: T32, CDK1/cyclinB (Homo sapiens, UniProt P06493)
T32 construct: purchased Millipore, Inc. (KinaseProfiler service)
Method in brief: as §1

GSK3beta = target: T33, GSK3beta (Homo sapiens, UniProt P49841)
T33 construct: purchased Millipore, Inc. (KinaseProfiler service)
Method in brief: as §1

PKD2 = target: T34, PKD2 (Homo sapiens, UniProt Q9BZL6)
T34 construct: purchased Millipore (KinaseProfiler service)
Method in brief: as §1

GRK7 = target: T35, GRK7 (Homo sapiens, UniProt Q8WTQ7)
T35 construct: purchased Millipore, Inc. (KinaseProfiler service)
Method in brief: as §1

SIK = target: T36, SIK (Homo sapiens, UniProt P57059)
T36 construct: purchased Millipore, Inc. (KinaseProfiler service)
Method in brief: as §1

EphB2 = target: T37, EphB2 (Homo sapiens, UniProt P29323)
T37 construct: purchased Millipore, Inc. (KinaseProfiler service)
Method in brief: as §1

Tie2 = target: T38, Tie2 (Homo sapiens, UniProt Q02763)
T38 construct: purchased Millipore, Inc. (KinaseProfiler service)
Method in brief: as §1

ULK2 = target: T39, ULK2 (Homo sapiens, UniProt Q8IYT8)
T39 construct: purchased Millipore, Inc. (KinaseProfiler service)
Method in brief: as §1

AKT3 = target: T40, AKT3 (Homo sapiens, UniProt Q9Y243)
T40 construct: purchased Millipore, Inc. (KinaseProfiler service)
Method in brief: as §1

COCCN1C[C@@H](NC(=O)Nc2c(-c3ccccc3)nc3c(C)nccn23)[C@H](c2ccc(F)c(F)c2)C1 [Example 20, 1-((3S,4R)-4-(3,4-difluorophenyl)-1-(2-methoxyethyl)pyrrolidin-3-yl)-3-(8-methyl-2-phenylimidazo[1,2-a]pyrazin-3-yl)urea]
Avg. POC (ROCK-I): 95.5 POC
Avg. POC (CDK6/cyclinD3): 103.5 POC
Avg. POC (EphB1): 85 POC
Avg. POC (CDK2/cyclinA): 112 POC
Avg. POC (AKT1): 109 POC
Avg. POC (WNK2): 120 POC
Avg. POC (p38beta): 98.5 POC
Avg. POC (Fes): 113.5 POC
Avg. POC (Rsk4): 147 POC
Avg. POC (CK2): 109 POC
Avg. POC (DRAK1): 107 POC
Avg. POC (SRPK1): 113.5 POC
Avg. POC (LOK): 108.5 POC
Avg. POC (CAMK1): 105.5 POC
Avg. POC (CHK1): 103.5 POC
Avg. POC (IGF-1R Activated): 100 POC
Avg. POC (PKCiota): 101.5 POC
Avg. POC (ZAP-70): 102.5 POC
Avg. POC (CLK2): 106.5 POC
Avg. POC (CDK3/cyclinE): 111 POC
Avg. POC (CK1gamma2): 110 POC
Avg. POC (PAK6): 102 POC
Avg. POC (TAO3): 103 POC
Avg. POC (CK1_y): 104 POC
Avg. POC (Abl2): 112.5 POC
Avg. POC (DMPK): 105.5 POC
Avg. POC (NEK7): 105.5 POC
Avg. POC (MSSK1): 108.5 POC
Avg. POC (JNK2alpha2): 107.5 POC
Avg. POC (NEK11): 109.5 POC
Avg. POC (Pim-3): 98 POC
Avg. POC (ERK1): 115 POC
Avg. POC (CDK1/cyclinB): 99 POC
Avg. POC (GSK3beta): 129 POC
Avg. POC (PKD2): 113.5 POC
Avg. POC (GRK7): 96.5 POC
Avg. POC (SIK): 97.5 POC
Avg. POC (EphB2): 104 POC
Avg. POC (Tie2): 119 POC
Avg. POC (ULK2): 109 POC
Avg. POC (AKT3): 104 POC
